Patent publication US4299821A, “Tripeptides acting on the central nervous system and a process for the preparation thereof” (Richter Gedeon Vegyeszeti Gyar Rt., priority 1979, dated 1981)
Where a SMILES comes first, the peptide text is derived from it. [ ]: non-standard residue; d: D form. pGlu = O=C1CC[C@@H](C(=O)O)N1; Nle = CCCC[C@H](N)C(=O)O; Abu = CC[C@H](N)C(=O)O

Test system: Haloperidol-induced catalepsy
Test: Inhibition of Haloperidol-induced catalepsy on rats
Format: in vivo, male Wistar rats
Conditions: 40 mg/kg Haloperidol s.c., compound i.v. 120 min later, probit analysis, observation time per compound
Method: (1) Inhibition of Haloperidol-induced catalepsy on rats (see J. Delay and P. Deniker: Compt. Rend. Congr. Med. Alenistes Neurologistes, 19, 497, Luxembourg, 1952)
The tests were performed on male Wistar rats weighing 160 to 180 g.
40 mg/kg of 4-(p-chlorophenyl)-1-(3-/p-fluorobenzoyl/propyl)-piperidin-4-ol(Haloperidol) were administered subcutaneously into the animals, and 120 minutes after this treatment the animals were checked for the appearance of catalepsy. The rats were divided into groups of 10 animals each, and treated intravenously with TRH or the new TRH analogues. The animals belonging to the control group received physiological saline. The catalepsy-suspending effects of the individual compounds were determined 15, 30, 60, 90 and 120 minutes after the treatment. The animals that had not changed their position for 30 seconds after placing their fore-paw onto a 7 cm high column were regarded as cataleptic.

| SMILES | Inhibition of Haloperidol catalepsy ED50 [mg/kg] |
| --- | --- |
| CC[C@H](NC(=O)[C@@H]1CCC(=O)N1)C(=O)N1CCC[C@H]1C(N)=O [Abu Pro H, L-Pyroglutamyl-L-α-aminobutyl-L-prolinamide] ([pGlu]-[Abu]-Pro-NH2) | 80 |
| CCCC[C@H](NC(=O)[C@@H]1CCC(=O)N1)C(=O)N1CCC[C@H]1C(N)=O [Nleu Pro H, L-Pyroglutamyl-L-norleucyl-L-prolinamide] ([pGlu]-[Nle]-Pro-NH2) | 16.8 |
| NC(=O)[C@@H]1CCCN1C(=O)[C@H](Cc1c[nH]cn1)NC(=O)[C@@H]1CCC(=O)N1 [TRH, L-pyroglutamyl-L-histidyl-L-prolinamide, reference compound] | 80 |

Test system: locomotive activity induced by L-Dopa
Test: Potentiation of locomotive activity induced on mice by L-Dopa
Format: in vivo, male mice
Conditions: Pargyline 40 mg/kg i.p., compound 20 mg/kg i.p., L-Dopa 100 mg/kg i.p., 30 min, percent related to TRH
Method: (2) Potentiation of locomotive activity induced on mice by L-Dopa (see The Thyroid Axis, Drugs and Behavior, p. 116, A. J. Prage Jr., Raven Press, New York, 1974)
The tests were performed on groups of 15 male mice each, weighing 18 to 22 g.
First, the animals were treated intraperitoneally with 40 mg/kg of N-methyl-N-propargyl-benzylamine (Pargyline), and then an intraperitoneal dosage of 20 mg/kg of TRH or a TRH-analogue was introduced, followed by an intraperitoneal dosage of 100 mg/kg of L-Dopa. The locomotive activity of the animals was recorded 30, 60 and 90 minutes after this treatment, and the level of potentiation was expressed in percents related to the results observed with TRH.

| SMILES | Potentiation of the locomotive effect of L-Dopa % after 30' [%] |
| --- | --- |
| CC[C@H](NC(=O)[C@@H]1CCC(=O)N1)C(=O)N1CCC[C@H]1C(N)=O [Abu Pro H, L-Pyroglutamyl-L-α-aminobutyl-L-prolinamide] ([pGlu]-[Abu]-Pro-NH2) | 27 |
| CCCC[C@H](NC(=O)[C@@H]1CCC(=O)N1)C(=O)N1CCC[C@H]1C(N)=O [Nleu Pro H, L-Pyroglutamyl-L-norleucyl-L-prolinamide] ([pGlu]-[Nle]-Pro-NH2) | 249 |
| NC(=O)[C@@H]1CCCN1C(=O)[C@H](Cc1c[nH]cn1)NC(=O)[C@@H]1CCC(=O)N1 [TRH, L-pyroglutamyl-L-histidyl-L-prolinamide, reference compound] | 100 |

Same assay, conditions: Pargyline 40 mg/kg i.p., compound 20 mg/kg i.p., L-Dopa 100 mg/kg i.p., 60 min, percent related to TRH

| SMILES | Potentiation of the locomotive effect of L-Dopa % after 60' [%] |
| --- | --- |
| CC[C@H](NC(=O)[C@@H]1CCC(=O)N1)C(=O)N1CCC[C@H]1C(N)=O [Abu Pro H, L-Pyroglutamyl-L-α-aminobutyl-L-prolinamide] ([pGlu]-[Abu]-Pro-NH2) | 14 |
| CCCC[C@H](NC(=O)[C@@H]1CCC(=O)N1)C(=O)N1CCC[C@H]1C(N)=O [Nleu Pro H, L-Pyroglutamyl-L-norleucyl-L-prolinamide] ([pGlu]-[Nle]-Pro-NH2) | 105 |
| NC(=O)[C@@H]1CCCN1C(=O)[C@H](Cc1c[nH]cn1)NC(=O)[C@@H]1CCC(=O)N1 [TRH, L-pyroglutamyl-L-histidyl-L-prolinamide, reference compound] | 100 |

Same assay, conditions: Pargyline 40 mg/kg i.p., compound 20 mg/kg i.p., L-Dopa 100 mg/kg i.p., 90 min, percent related to TRH

| SMILES | Potentiation of the locomotive effect of L-Dopa % after 90' [%] |
| --- | --- |
| CC[C@H](NC(=O)[C@@H]1CCC(=O)N1)C(=O)N1CCC[C@H]1C(N)=O [Abu Pro H, L-Pyroglutamyl-L-α-aminobutyl-L-prolinamide] ([pGlu]-[Abu]-Pro-NH2) | 18 |
| CCCC[C@H](NC(=O)[C@@H]1CCC(=O)N1)C(=O)N1CCC[C@H]1C(N)=O [Nleu Pro H, L-Pyroglutamyl-L-norleucyl-L-prolinamide] ([pGlu]-[Nle]-Pro-NH2) | 112 |
| NC(=O)[C@@H]1CCCN1C(=O)[C@H](Cc1c[nH]cn1)NC(=O)[C@@H]1CCC(=O)N1 [TRH, L-pyroglutamyl-L-histidyl-L-prolinamide, reference compound] | 100 |

Test system: Reserpine hypothermy
Test: Reserpine hypothermy-reversing effect on mice
Format: in vivo, male mice
Conditions: 16 hours after reserpine 5 mg/kg i.p., before the tripeptide, average of 10 animals
Method: (3) Reserpine hypothermy-reversing effect on mice (see B. M. Askew: Life Sci. 2, 725-730 /1963/)
The tests were performed on groups of 10 male mice each, weighing 18 to 22 g. Reserpine was administered into the animals in an intraperitoneal dosage of 5 mg/kg, and 16 hours later the animals were treated with 20 mg/kg of TRH or a tripeptide under examination.
The rectal temperature of the animals was measured prior to the administration of reserpine (marked by "norm." in Table 1), 16 hours after the administration of reserpine (marked by "res." in Table 1), furthermore 1 and 2 hours after the administration of the tripeptide (marked by "obs. time" in Table 1). The data listed in Table 1 are the averages of the temperatures observed on the 10 animals.

| SMILES | Reserpine hypothermy reversing effect, Rectal temperature res. [°C] |
| --- | --- |
| CC[C@H](NC(=O)[C@@H]1CCC(=O)N1)C(=O)N1CCC[C@H]1C(N)=O [Abu Pro H, L-Pyroglutamyl-L-α-aminobutyl-L-prolinamide] ([pGlu]-[Abu]-Pro-NH2) | 19.7 |
| CCCC[C@H](NC(=O)[C@@H]1CCC(=O)N1)C(=O)N1CCC[C@H]1C(N)=O [Nleu Pro H, L-Pyroglutamyl-L-norleucyl-L-prolinamide] ([pGlu]-[Nle]-Pro-NH2) | 27.1 |
| NC(=O)[C@@H]1CCCN1C(=O)[C@H](Cc1c[nH]cn1)NC(=O)[C@@H]1CCC(=O)N1 [TRH, L-pyroglutamyl-L-histidyl-L-prolinamide, reference compound] | 25.9 |

Same assay, conditions: prior to the administration of reserpine (baseline of the group), average of 10 animals

| SMILES | Reserpine hypothermy reversing effect, Rectal temperature norm. [°C] |
| --- | --- |
| CC[C@H](NC(=O)[C@@H]1CCC(=O)N1)C(=O)N1CCC[C@H]1C(N)=O [Abu Pro H, L-Pyroglutamyl-L-α-aminobutyl-L-prolinamide] ([pGlu]-[Abu]-Pro-NH2) | 36.3 |
| CCCC[C@H](NC(=O)[C@@H]1CCC(=O)N1)C(=O)N1CCC[C@H]1C(N)=O [Nleu Pro H, L-Pyroglutamyl-L-norleucyl-L-prolinamide] ([pGlu]-[Nle]-Pro-NH2) | 36.3 |
| NC(=O)[C@@H]1CCCN1C(=O)[C@H](Cc1c[nH]cn1)NC(=O)[C@@H]1CCC(=O)N1 [TRH, L-pyroglutamyl-L-histidyl-L-prolinamide, reference compound] | 36.2 |

Same assay, conditions: reserpine 5 mg/kg i.p., 1 hour after 20 mg/kg of the tripeptide, average of 10 animals

| SMILES | Reserpine hypothermy reversing effect, Rectal temperature obs. time 1 h [°C] |
| --- | --- |
| CC[C@H](NC(=O)[C@@H]1CCC(=O)N1)C(=O)N1CCC[C@H]1C(N)=O [Abu Pro H, L-Pyroglutamyl-L-α-aminobutyl-L-prolinamide] ([pGlu]-[Abu]-Pro-NH2) | 22.2 |
| CCCC[C@H](NC(=O)[C@@H]1CCC(=O)N1)C(=O)N1CCC[C@H]1C(N)=O [Nleu Pro H, L-Pyroglutamyl-L-norleucyl-L-prolinamide] ([pGlu]-[Nle]-Pro-NH2) | 37.6 |
| NC(=O)[C@@H]1CCCN1C(=O)[C@H](Cc1c[nH]cn1)NC(=O)[C@@H]1CCC(=O)N1 [TRH, L-pyroglutamyl-L-histidyl-L-prolinamide, reference compound] | 33.5 |

Same assay, conditions: reserpine 5 mg/kg i.p., 2 hours after 20 mg/kg of the tripeptide, average of 10 animals

| SMILES | Reserpine hypothermy reversing effect, Rectal temperature obs. time 2 h [°C] |
| --- | --- |
| CC[C@H](NC(=O)[C@@H]1CCC(=O)N1)C(=O)N1CCC[C@H]1C(N)=O [Abu Pro H, L-Pyroglutamyl-L-α-aminobutyl-L-prolinamide] ([pGlu]-[Abu]-Pro-NH2) | 25.4 |
| CCCC[C@H](NC(=O)[C@@H]1CCC(=O)N1)C(=O)N1CCC[C@H]1C(N)=O [Nleu Pro H, L-Pyroglutamyl-L-norleucyl-L-prolinamide] ([pGlu]-[Nle]-Pro-NH2) | 32.2 |
| NC(=O)[C@@H]1CCCN1C(=O)[C@H](Cc1c[nH]cn1)NC(=O)[C@@H]1CCC(=O)N1 [TRH, L-pyroglutamyl-L-histidyl-L-prolinamide, reference compound] | 30.2 |

Test system: sleeping caused by hexobarbital
Test: Influencing the duration of sleeping caused by hexobarbital
Format: in vivo, male mice
Conditions: mice, hexobarbital sodium 60 mg/kg i.v., 10 min later compound 20 mg/kg i.p.; control 38.4 ± 1.36 min.
Method: (4) Influencing the duration of sleeping caused by hexobarbital The tests were performed on groups of 10 male mice each. The animals were treated intravenously with 60 mg/kg of hexobarbital sodium ([…]; Bayer), and 10 minutes later 20 mg/kg of TRH or a tripeptide under examination were administered intraperitoneally into the animals. The sleeping times of the animals were recorded, averages were calculated for the individual groups, and the results were expressed as percents related to the control group.

| SMILES | Decrease of sleeping period (% related to the control animals) Hexobarb. [%] |
| --- | --- |
| CC[C@H](NC(=O)[C@@H]1CCC(=O)N1)C(=O)N1CCC[C@H]1C(N)=O [Abu Pro H, L-Pyroglutamyl-L-α-aminobutyl-L-prolinamide] ([pGlu]-[Abu]-Pro-NH2) | 84 |
| CCCC[C@H](NC(=O)[C@@H]1CCC(=O)N1)C(=O)N1CCC[C@H]1C(N)=O [Nleu Pro H, L-Pyroglutamyl-L-norleucyl-L-prolinamide] ([pGlu]-[Nle]-Pro-NH2) | 77 |
| NC(=O)[C@@H]1CCCN1C(=O)[C@H](Cc1c[nH]cn1)NC(=O)[C@@H]1CCC(=O)N1 [TRH, L-pyroglutamyl-L-histidyl-L-prolinamide, reference compound] | 56 |

Test system: Ethanol narcosis
Test: Ethanol narcosis
Format: in vivo
Conditions: mice, 4.5 g ethanol i.p., 10 min later compound 20 mg/kg i.p.; control 46.9 ± 2.17 min.
Method: (5) Ethanol narcosis (see J. M. Cott et al.: J. Pharm. Exp. Ther. 196, 594 /1976/) The tests were performed on groups of 20 mice of both sexes, each weighing 18 to 22 g. […] of ethanol were introduced intraperitoneally into the animals, and 10 minutes later the animals were treated intraperitoneally with 20 mg/kg of TRH or a tripeptide under examination. The sleeping periods of the animals were recorded, averages were calculated for the individual groups, and the results were expressed as percents related to the control group.

| SMILES | Decrease of sleeping period (% related to the control animals) Ethanol [%] |
| --- | --- |
| CC[C@H](NC(=O)[C@@H]1CCC(=O)N1)C(=O)N1CCC[C@H]1C(N)=O [Abu Pro H, L-Pyroglutamyl-L-α-aminobutyl-L-prolinamide] ([pGlu]-[Abu]-Pro-NH2) | 39 |
| CCCC[C@H](NC(=O)[C@@H]1CCC(=O)N1)C(=O)N1CCC[C@H]1C(N)=O [Nleu Pro H, L-Pyroglutamyl-L-norleucyl-L-prolinamide] ([pGlu]-[Nle]-Pro-NH2) | 74 |
| NC(=O)[C@@H]1CCCN1C(=O)[C@H](Cc1c[nH]cn1)NC(=O)[C@@H]1CCC(=O)N1 [TRH, L-pyroglutamyl-L-histidyl-L-prolinamide, reference compound] | 35 |

Test system: TSH
Test: Hormonal activity (TSH effect) on rats
Format: in vivo, male Wistar rats
Conditions: 20 mg/kg i.v., plasma TSH by radioimmune assay 15 min after treatment, relative activity, TRH = 100%
Method: (6) Hormonal activity (TSH effect) on rats
The tests were performed on groups of 7 or 8 male Wistar rats each, weighing 200 g. The animals were treated intravenously with 20 mg/kg of TRH or a tripeptide under examination. The TSH reaction of the animals was evaluated 15 minutes after this treatment, by subjecting the blood plasma to radioimmune assay. The relative activities were calculated by the four-point method using a TPA 101 computer, and the activity of TRH was regarded as 100%.

| SMILES | TSH effect [%] |
| --- | --- |
| CC[C@H](NC(=O)[C@@H]1CCC(=O)N1)C(=O)N1CCC[C@H]1C(N)=O [Abu Pro H, L-Pyroglutamyl-L-α-aminobutyl-L-prolinamide] ([pGlu]-[Abu]-Pro-NH2) | 0.02 |
| CCCC[C@H](NC(=O)[C@@H]1CCC(=O)N1)C(=O)N1CCC[C@H]1C(N)=O [Nleu Pro H, L-Pyroglutamyl-L-norleucyl-L-prolinamide] ([pGlu]-[Nle]-Pro-NH2) | 3.8 |
| NC(=O)[C@@H]1CCCN1C(=O)[C@H](Cc1c[nH]cn1)NC(=O)[C@@H]1CCC(=O)N1 [TRH, L-pyroglutamyl-L-histidyl-L-prolinamide, reference compound] | 100.0 |
